This note sets out measurements from patent publication US20150316565A1, “Methodologies and Reagents for Detecting Fibrinolysis and Hyperfibrinolysis” (Haemonetics Corporation, priority 2014, published 2015).

The test system of test [1] is fibrinolysis in citrated whole blood. The test can be described thus: Citrated Kaolin (CK) TEG assay, blood spiked with increasing t-PA, LY30. The arrangement: species or system human. As to conditions: 15 healthy donors, eight t-PA concentrations, FIG. 9. The protocol: For the Citrated Kaolin group, citrated blood from each of the donors (e.g., whole blood collected into a tube containing sodium citrate (thereby creating a ratio blood to citrate of approximately 9:1) is collected. For eight different tPA concentrations, 0.5 ml of the blood was gently mixed with Kaolin (a coagulation activator) and increasing concentrations of t-PA to induce fibrinolysis. Aliquots were transferred to 37° C. TEG cups, and the samples were analyzed using the TEG 5000 device, and the LY30 calculated for each of the 15 donors at each of the tPA concentrations. The results plotting the LY30 against the t-PA concentration are shown in FIG. 9.

The test system of test [2] is fibrinolysis in citrated blood with FF reagent (GPIIb/IIIa receptor antagonist). The test is described as follows: Functional Fibrinogen TEG assay with/without TXA, blood spiked with increasing t-PA, ΔLY30. As to conditions: 15 healthy donors, eight t-PA concentrations, FIG. 10. The arrangement: species or system human. The protocol:
The two TEG cups for each of the fifteen donors at the eight different t-PA concentrations were analyzed on a TEG 5000 device.

Test [3] has as its system fibrinolysis in a blood sample with reduced platelet function. The test can be described thus: Functional Fibrinogen (FF) TEG assay with and without tranexamic acid (TXA).

Regarding “tPA: tissue plasminogen activator, converts inactive plasminogen to active plasmin; spiked into blood to induce fibrinolysis”, in test [1], the “Detection threshold [tPA] for CK-LY30” value is 75 to 100 ng/mL. For the same compound, the “Detection threshold [tPA] for ΔLY30” value in test [2] was 25 to 50 ng/mL.
With `NC[C@H]1CC[C@H](C(=O)O)CC1` [TXA, tranexamic acid], the LY30 entry in test [3] (TXA-treated sample of FIG. 6, amplitude at 74 minutes, the sample not treated with TXA had LY30 approximately 50%) is given as “approximately 0.1%”. Moreover, the “TEG tracing of the TXA-treated portion compared with the portion not treated with TXA” value in test [3] (blood from a patient with fibrinolysis or hyperfibrinolysis, FIGS. 5 and 6, divergence from about 2 minutes) is listed as “higher amplitude, faster growing TEG tracing”.
